Measured values: patent publication US5013743A, “Selective antibacterial agent against campytobacter” (Takeda Chemical Industries, Ltd., priority 1989, dated 1991)
≈ marks a conversion by molar mass, not a printed value.

Tests used:
Format in all cases: cell-based
[1] = tested on: C. pylori CPY 00111; assay: MIC, agar-plate dilution method, test strain D; details: Helicobacter pylori, CPY00111, 72 h, Brucella agar, 37° C., 3 days
Protocol: (§1) The minimum inhibitory concentration (MIC) of each compound was determined by the agar-plate dilution method based on the standard method advocated by Japan Society of Chemotherapy [cf: Chemotherapy, Jan. '81, p. 76]. The volume of agar medium per plate was 20 ml. Each of the test compounds was dissolved in dimethylsulfoxide at a concentration of 80 mg/ml or 40 mg/ml, and diluted 10 times with sterile distilled water. Furthermore, the aqueous solution of 8 mg/ml or 4 mg/ml was diluted serially 2-fold with sterile distilled water. To 2 ml of the diluted solution was added 18 ml of Brucella agar (BBL Microbiology Systems, Becton Dickinson and Co., Cockeysville, Md. 21030) containing 7% defibrinated horse blood (manufactured by Nippon Bio-supp. Center) and mixed well. Test strains frozen at -80° C. in Brucella broth (BBL) containing 10% horse serum were thawed and inoculated on a Brucella agar slant medium containing 7% defibrinated horse blood. The medium was incubated anaerobically at 37° C. for 3 days in a jar containing a piece of sponge sufficiently impregnated with water and Campy Pak™ (BBL). The organisms grown on the slant medium were collected and suspended in a Brucella broth to correspond to the turbidity of about 10^8 CFU/ml of common bacteria. One platinum loop of inoculum was streaked on the medium plates for determination. The plates were incubated under the same conditions as described above.

[2] = tested on: C. pylori CLO 1; assay: MIC, agar-plate dilution method, test strain F; details: Helicobacter pylori, CLO1, 72 h, Brucella agar, 37° C., 3 days
Protocol: as §1

[3] = tested on: S. faecium IFO 3128; assay: MIC, standard agar-plate dilution method, aerobic common bacteria; details: Enterococcus faecium, IFO3128
From the text: (§2) Antibacterial activities of some compounds of the present invention against aerobic common bacteria were examined.

[4] = tested on: P. vulgaris IFO 3988; assay: as above; details: Proteus vulgaris, IFO3988
From the text: as §2

[5] = tested on: S. pneumoniae Type 1; assay: as above; details: Streptococcus pneumoniae, TYPE1
From the text: as §2

[6] = tested on: E. coli 0-111; assay: as above; details: Escherichia coli, 0111
From the text: as §2

[7] = tested on: S. aureus P 114; assay: as above; details: Staphylococcus aureus, P114
From the text: as §2

[8] = tested on: P. aeruginosa IFO 3455; assay: as above; details: Pseudomonas aeruginosa, IFO3455
From the text: as §2

[9] = tested on: C. freundii TN 474; assay: as above; details: Citrobacter freundii, TN474
From the text: as §2

[10] = tested on: S. aureus C 260; assay: as above; details: Staphylococcus aureus, C260
From the text: as §2

[11] = tested on: S. aureus 1840; assay: as above; details: Staphylococcus aureus
From the text: as §2

[12] = tested on: S. aureus J-108; assay: as above; details: Staphylococcus aureus, J108
From the text: as §2

[13] = tested on: P. aeruginosa B 184; assay: as above; details: Pseudomonas aeruginosa, B184
From the text: as §2

[14] = tested on: S. marcecens IFO 12648; assay: as above
From the text: as §2

[15] = tested on: K. oxytoca TN 1711; assay: as above; details: Klebsiella oxytoca, TN1711
From the text: as §2

[16] = tested on: S. aureus N-241; assay: as above; details: Staphylococcus aureus, N241
From the text: as §2

[17] = tested on: S. marcecens B 315; assay: as above
From the text: as §2

[18] = tested on: P. aeruginosa U 31; assay: as above; details: Pseudomonas aeruginosa, U31
From the text: as §2

[19] = tested on: S. pyogenes S-8; assay: as above; details: Streptococcus pyogenes, S8
From the text: as §2

[20] = tested on: S. aureus 308 A-1; assay: as above; details: Staphylococcus aureus, 308A1
From the text: as §2

[21] = tested on: P. aeruginosa P 9; assay: as above; details: Pseudomonas aeruginosa, P9
From the text: as §2

[22] = tested on: K. pneumoniae DT; assay: as above; details: Klebsiella pneumoniae
From the text: as §2

[23] = tested on: S. mitis America; assay: as above; details: Streptococcus mitis
From the text: as §2

[24] = tested on: A. calcoaceticus IFO 13006; assay: as above; details: Acinetobacter calcoaceticus, IFO13006
From the text: as §2

[25] = tested on: C. diphtheriae Tront; assay: as above; details: Corynebacterium diphtheriae
From the text: as §2

[26] = tested on: E. cloacae TN 583; assay: as above; details: Enterobacter cloacae, TN583
From the text: as §2

[27] = tested on: E. coli T 7; assay: as above; details: Escherichia coli, T7
From the text: as §2

[28] = tested on: S. pyogenes E-14; assay: as above; details: Streptococcus pyogenes, E14
From the text: as §2

[29] = tested on: C. freundii IFO 12681; assay: as above; details: Citrobacter freundii, IFO12681
From the text: as §2

[30] = tested on: S. aureus FDA 209P; assay: as above; details: Staphylococcus aureus, FDA209P
From the text: as §2

[31] = tested on: E. coli NIHJ JC-2; assay: as above; details: Escherichia coli, NIHJJC2
From the text: as §2

[32] = tested on: E. cloacae IFO 12937; assay: as above; details: Enterobacter cloacae, IFO12937
From the text: as §2

[33] = tested on: M. morganii IFO 3168; assay: as above; details: Morganella morganii, IFO3168
From the text: as §2

[34] = tested on: P. aeruginosa GN 3407; assay: as above; details: Pseudomonas aeruginosa, GN3407
From the text: as §2

[35] = tested on: aerobic bacteria; assay: Antibacterial action against aerobic bacteria (Table 4, summary in words); details: summary of Table 4
From the text: as §2

[36] = tested on: C. pylori NCTC 11916; assay: MIC, agar-plate dilution method, test strain A; details: Helicobacter pylori, NCTC11916, 72 h, Brucella agar, 37° C., 3 days
Protocol: as §1

SMILES: Cc1c(OCC(F)(F)F)ccnc1C[S+]([O-])c1nc2ccccc2[nH]1 (stereo not drawn) [Compound 1]
- MIC [1]: 6.25 µg/mL (≈ 16.9 µM)
- MIC [2]: 6.25 µg/mL (≈ 16.9 µM)
- MIC [3]: > 400 µg/mL
- MIC [4]: > 400 µg/mL
- MIC [5]: > 400 µg/mL
- MIC [6]: > 400 µg/mL
- MIC [7]: > 400 µg/mL
- MIC [8]: > 400 µg/mL
- MIC [9]: > 400 µg/mL
- MIC [10]: > 400 µg/mL
- MIC [11]: > 400 µg/mL
- MIC [12]: > 400 µg/mL
- MIC [13]: > 400 µg/mL
- MIC [14]: > 400 µg/mL
- MIC [15]: > 400 µg/mL
- MIC [16]: > 400 µg/mL
- MIC [17]: > 400 µg/mL
- MIC [18]: > 400 µg/mL
- MIC [19]: > 400 µg/mL
- MIC [20]: > 400 µg/mL
- MIC [21]: > 400 µg/mL
- MIC [22]: > 400 µg/mL
- MIC [23]: > 400 µg/mL
- MIC [24]: > 400 µg/mL
- MIC [25]: > 400 µg/mL
- MIC [26]: > 400 µg/mL
- MIC [27]: > 400 µg/mL
- MIC [28]: > 400 µg/mL
- MIC [29]: > 400 µg/mL
- MIC [30]: > 400 µg/mL
- MIC [31]: > 400 µg/mL
- MIC [32]: > 400 µg/mL
- MIC [33]: > 400 µg/mL
- MIC [34]: > 400 µg/mL
- antibacterial action against the aerobic bacteria [35]: did not possess at all antibacterial action
- MIC [36]: 12.5 µg/mL (≈ 33.8 µM)

SMILES: COc1ccc2[nH]c([S+]([O-])Cc3ncc(C)c(OC)c3C)nc2c1 (stereo not drawn) [Compound 2]
- MIC [1]: 12.5 µg/mL (≈ 36.2 µM)
- MIC [2]: 25 µg/mL (≈ 72.4 µM)
- MIC [3]: > 400 µg/mL
- MIC [4]: > 400 µg/mL
- MIC [5]: > 400 µg/mL
- MIC [6]: > 400 µg/mL
- MIC [7]: > 400 µg/mL
- MIC [8]: > 400 µg/mL
- MIC [9]: > 400 µg/mL
- MIC [10]: > 400 µg/mL
- MIC [11]: > 400 µg/mL
- MIC [12]: > 400 µg/mL
- MIC [13]: > 400 µg/mL
- MIC [14]: > 400 µg/mL
- MIC [15]: > 400 µg/mL
- MIC [16]: > 400 µg/mL
- MIC [17]: > 400 µg/mL
- MIC [18]: > 400 µg/mL
- MIC [19]: > 400 µg/mL
- MIC [20]: > 400 µg/mL
- MIC [21]: > 400 µg/mL
- MIC [22]: > 400 µg/mL
- MIC [23]: > 400 µg/mL
- MIC [24]: > 400 µg/mL
- MIC [25]: > 400 µg/mL
- MIC [26]: > 400 µg/mL
- MIC [27]: 40 µg/mL (≈ 116 µM)
- MIC [28]: > 400 µg/mL
- MIC [29]: > 400 µg/mL
- MIC [30]: > 400 µg/mL
- MIC [31]: > 400 µg/mL
- MIC [32]: > 400 µg/mL
- MIC [33]: > 400 µg/mL
- MIC [34]: > 400 µg/mL
- antibacterial action against the aerobic bacteria [35]: did not possess at all antibacterial action
- MIC [36]: 25 µg/mL (≈ 72.4 µM)

SMILES: Cc1c(OCC(F)(F)F)ccnc1CSc1nc2ccccc2[nH]1 [Compound 6]
- MIC [1]: 3.13 µg/mL (≈ 8.86 µM)
- MIC [2]: 25 µg/mL (≈ 70.7 µM)
- MIC [3]: > 400 µg/mL
- MIC [4]: > 400 µg/mL
- MIC [5]: > 400 µg/mL
- MIC [6]: 40 µg/mL (≈ 113 µM)
- MIC [7]: > 400 µg/mL
- MIC [8]: > 400 µg/mL
- MIC [9]: > 400 µg/mL
- MIC [10]: > 400 µg/mL
- MIC [11]: > 400 µg/mL
- MIC [12]: > 400 µg/mL
- MIC [13]: > 400 µg/mL
- MIC [14]: > 400 µg/mL
- MIC [15]: > 400 µg/mL
- MIC [16]: > 400 µg/mL
- MIC [17]: > 400 µg/mL
- MIC [18]: > 400 µg/mL
- MIC [19]: > 400 µg/mL
- MIC [20]: > 400 µg/mL
- MIC [21]: > 400 µg/mL
- MIC [22]: > 400 µg/mL
- MIC [23]: > 400 µg/mL
- MIC [24]: > 400 µg/mL
- MIC [25]: > 400 µg/mL
- MIC [26]: > 400 µg/mL
- MIC [27]: > 400 µg/mL
- MIC [28]: > 400 µg/mL
- MIC [29]: > 400 µg/mL
- MIC [30]: > 400 µg/mL
- MIC [31]: > 400 µg/mL
- MIC [32]: > 400 µg/mL
- MIC [33]: > 400 µg/mL
- MIC [34]: > 400 µg/mL
- antibacterial action against the aerobic bacteria [35]: did not possess at all antibacterial action
- MIC [36]: 6.25 µg/mL (≈ 17.7 µM)
